Measurements as given in paper PMC9146163, “Novel Au Carbene Complexes as Promising Multi-Target Agents in Breast Cancer Treatment” (Pharmaceuticals, 2022).
Entries after “also recorded” stand apart in the source; their conditions may differ.

Legend:
[1] = target: T1, human topoisomerase II (hTopo II) (Homo sapiens, UniProt P11388); experiment: hTopo II decatenation assay; assay type: biochemical; details: 1 μM; kDNA, agarose gel
T1 construct: purchased TopoGEN, Port Orange, FL

MCF-10A cells [2] = experiment: TUNEL assay, MCF-10A; details: IC50, 24 h
Method: TUNEL assay was employed to assess the cells’ apoptosis, following the manufacturer’s procedures (CF™488A TUNEL Assay Apoptosis Detection Kit, Biotium, Hayward, CA, USA). […] DAPI (Sigma, 0.2 µg/mL) was used for nuclei staining. A fluorescence microscope (Leica DM 6000) was used for fluorescence detection (20× magnification). All the images were processed using the LAS-X software. Images are representative of three independent experiments.
TUNEL assay in MCF-10A cells
Then they were exposed to the TdT enzyme and
visualized under a fluorescence microscope (20x magnification).

[3] = target: T2, Labeled Rabbit Muscle Actin (Oryctolagus cuniculus, UniProt P68135); experiment: In vitro actin polymerization assay; assay type: biochemical; details: 5 µM
T2 construct: purchased Abcam (Actin Polymerization/Depolymerization Assay Kit)
Method: The ability of the tested compounds to interfere with the actin polymerization and depolymerization reaction was measured using an Actin Polymerization/Depolymerization Assay Kit purchased from Abcam, following the manufacturer’s instructions. […] For the polymerization assay, reconstituted actin was mixed with supplemented Buffer G and samples in a white 96-well plate and then the polymerization reaction was induced with the addition of the Buffer P supplemented with 10 mM ATP. The solution was mixed and the data acquisition started. For the Actin Depolymerization Assay, supplemented Buffers P and G were mixed and incubated in a white 96-well plate at room temperature for one hour to polymerize the actin, protected from light. Then samples were added and the data acquisition started. Latrunculin A and Cytochalasin B were used as control molecules at a concentration of 5 μM. For both the assays, the assembly of actin filaments was determined by measuring the fluorescence (Ex/Em: 365/410 nm) in kinetic mode for 1 h at room temperature using a microplate reader.

[4] = LogP determination (1-octanol/water, UV/vis); assay type: physicochemical; details: log[complex]oct/[complex]H2O, 55 μM, UV-Vis
Method: The logarithm of the partition coefficient (LogP) was evaluated by making a slight modification to the procedure reported in ref. [79]. Equal volumes of 1-octanol and water (distilled after milli-Q purification) were stirred for 20 h at room temperature. Then, they were separated to give 1-octanol-saturated water and water-saturated 1-octanol. Six (10, 20, 40, 50, 60 and 100 μM) standard concentrations of the compounds were prepared from the water-saturated 1-octanol. Analysis using UV/vis spectroscopy was used to obtain a calibration curve of absorbance vs. concentration. For each complex, a solution was prepared in the water-saturated 1-octanol (55 μM) and an equal volume of 1-octanol-saturated water was added. The solutions (biphasic) were mixed for 15 min and then centrifuged for 1h at 6500 rpm to allow separation.
Concentration in water-saturated 1-octanol was determined by UV-Vis spectroscopy. Reported LogP is defined as log[complex]oct/[complex]H2O.

NF-κB in MCF-10A cells = experiment: NF-κB immunofluorescence, MCF-10A; assay type: cell-based, human
Method: (§1) The MitoTracker Deep Red FM probe (MitoTracker Mitochondrion-Selective Probes, Invitrogen European Headquarters, Paisley, PA4 9RF, UK) was used for mitochondrial staining, as previously described. For immunofluorescence analysis, the cells were seeded and further processed, as reported by Iacopetta et al.. The primary antibodies used were: rabbit anti-β-Actin and vimentin (Santa Cruz Biotechnology, Dallas, TX, USA), mouse anti cytochrome c and NF-κB p65 (Abcam, Cambridge, UK), diluted 1:100 in bovine serum albumin (BSA) 2% overnight at 4 °C. The secondary antibodies were: Alexa Fluor® 488 conjugate goat-anti-rabbit and Alexa Fluor® 568 conjugate goat-anti-mouse (Thermo Fisher Scientific, MA, USA), diluted 1:500 and incubated for 2h at 37 °C. DAPI 0.2 μg/mL (Sigma Aldrich, Milan, Italy) was used for nuclei staining. […] All the images were acquired and processed using the LAS-X software.
L: Figure S6. NF-κB expression in MCF-10A cells
CTRL cells and in the cells exposed to compounds 1 and 6 NF-κB is localized within the cytoplasm and nucleus. Panels A, nuclear stain with DAPI (λex/em= 350/460 nm); panels B, Alexa Fluor CF 488 (λex/em= 490/515 nm); panels C, overlay channels. Images were acquired at 40x magnification and repres entative fields are shown.

MDA-MB-231 cells = experiment: MTT assay, MDA-MB-231; assay type: cell-based, human; details: MTT, 72 h; mean ± SD; read-out: IC50 MDA-MB-231
Method: The five employed cell lines were purchased from American Type Culture Collection (ATCC, Manassas, VA, USA) and maintained as already reported. MCF-7, MDA-MB-231, MCF-10A and Hek-293 were cultured, as indicated by Iacopetta et al.. SkBr3 cells were maintained in DMEM high glucose, supplemented with 10% FBS and 100 μg/mL penicillin/streptomycin.
(§2) MTT assays [Sigma Aldrich (St.Louis, MO, USA)] were used in order to determine the in vitro anticancer activities of all the target compounds, as already reported.The compounds were tested at different concentrations (0.1-1-10-20-40 µM) for 72 h. Results are represented as percent (%) of basal and the IC50 values were calculated using GraphPad Prism 9 (GraphPad Software, La Jolla, CA, USA).

Hek-293 cells = experiment: MTT assay, normal Hek-293; assay type: cell-based, human; details: MTT, 72 h; normal cells; mean ± SD; read-out: IC50 Hek-293
Method: (§3) The five employed cell lines were purchased from American Type Culture Collection (ATCC, Manassas, VA, USA) and maintained as already reported. […] SkBr3 cells were maintained in DMEM high glucose, supplemented with 10% FBS and 100 μg/mL penicillin/streptomycin.
as §2

[5] = system: vimentin in MCF-10A cells; experiment: Vimentin expression (immunofluorescence, Western blot), MCF-10A; assay type: cell-based, human; details: IC50 values, 24 h; immunofluorescence and Western blot quantification
Method: as §1
Protein lysates underwent the SDS-PAGE process, as already defined. […]
(CTRL) for 24 h. After treatment, the cells were further processed, observed and imaged under the inverted fluorescence microscope at 20x m agnification (for mo re details see Materi als and M ethods). […]
and processed as reported in the Experimental Section. […] (d) Western blots quantification carried out using […]

MCF-10A cells [6] = experiment: MTT assay, normal MCF-10A; assay type: cell-based, human; details: MTT; for IC50: 72 h, normal cells, mean ± SD, read-out: IC50 MCF-10A
Method: as §3
[…] Results are represented as percent (%) of basal and the IC50 values were calculated using GraphPad Prism 9 (GraphPad Software, La Jolla, CA, USA).

T1 sequence (P11388 whole entry): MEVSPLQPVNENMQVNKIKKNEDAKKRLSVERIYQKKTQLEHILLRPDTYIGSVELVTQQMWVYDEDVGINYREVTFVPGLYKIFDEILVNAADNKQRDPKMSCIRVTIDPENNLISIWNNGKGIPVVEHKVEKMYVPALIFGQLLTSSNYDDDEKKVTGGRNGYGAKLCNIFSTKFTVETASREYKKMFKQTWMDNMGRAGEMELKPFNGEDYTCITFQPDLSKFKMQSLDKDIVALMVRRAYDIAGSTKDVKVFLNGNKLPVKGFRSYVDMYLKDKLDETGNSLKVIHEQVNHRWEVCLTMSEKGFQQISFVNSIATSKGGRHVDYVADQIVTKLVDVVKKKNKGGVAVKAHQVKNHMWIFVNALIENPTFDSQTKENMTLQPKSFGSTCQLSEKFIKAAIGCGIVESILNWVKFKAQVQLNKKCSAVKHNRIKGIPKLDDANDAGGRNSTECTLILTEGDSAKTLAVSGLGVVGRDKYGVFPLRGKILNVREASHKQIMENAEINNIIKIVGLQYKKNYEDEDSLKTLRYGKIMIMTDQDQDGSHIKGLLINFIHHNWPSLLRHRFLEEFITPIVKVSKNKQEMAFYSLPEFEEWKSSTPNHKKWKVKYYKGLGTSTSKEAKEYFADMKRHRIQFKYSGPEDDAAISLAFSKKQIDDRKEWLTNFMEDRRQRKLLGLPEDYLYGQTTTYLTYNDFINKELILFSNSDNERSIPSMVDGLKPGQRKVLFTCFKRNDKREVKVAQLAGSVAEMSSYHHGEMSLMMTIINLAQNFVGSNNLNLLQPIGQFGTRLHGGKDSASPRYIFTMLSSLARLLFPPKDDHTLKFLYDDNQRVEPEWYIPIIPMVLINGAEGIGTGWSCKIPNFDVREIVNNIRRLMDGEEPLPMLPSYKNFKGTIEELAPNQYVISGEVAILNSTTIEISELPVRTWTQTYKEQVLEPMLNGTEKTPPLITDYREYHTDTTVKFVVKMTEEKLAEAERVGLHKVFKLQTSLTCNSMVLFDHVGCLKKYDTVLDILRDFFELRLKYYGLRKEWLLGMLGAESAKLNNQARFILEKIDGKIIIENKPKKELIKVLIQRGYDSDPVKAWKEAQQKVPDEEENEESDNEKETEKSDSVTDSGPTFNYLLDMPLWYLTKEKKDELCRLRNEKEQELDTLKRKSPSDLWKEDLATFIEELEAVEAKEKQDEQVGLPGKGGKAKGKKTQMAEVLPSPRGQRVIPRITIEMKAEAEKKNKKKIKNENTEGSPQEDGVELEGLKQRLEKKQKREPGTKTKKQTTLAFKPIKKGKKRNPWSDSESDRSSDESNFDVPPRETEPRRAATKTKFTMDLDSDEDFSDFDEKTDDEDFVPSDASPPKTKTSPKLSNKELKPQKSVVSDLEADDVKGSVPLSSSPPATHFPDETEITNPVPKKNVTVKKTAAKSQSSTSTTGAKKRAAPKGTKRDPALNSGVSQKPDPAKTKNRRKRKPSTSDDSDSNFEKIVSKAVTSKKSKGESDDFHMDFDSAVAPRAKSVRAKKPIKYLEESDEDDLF

Structure (SMILES)	inhibition of hTopo II decatenation activity [1]	apoptosis (TUNEL), MCF-10A (MCF-10A cells [2])	effect on actin polymerization (in words) [3]	LogP [4]	NF-κB localization, MCF-10A (NF-κB in MCF-10A cells)	IC50 (MDA-MB-231 cells)	IC50 (Hek-293 cells)	vimentin expression vs CTRL, MCF-10A [5]	IC50 (MCF-10A cells [6])	actin polymerization curve, final value ([3]; end of 1 h kinetic read, control about 37.000 RFU)	cytotoxicity against the normal MCF-10A cells (in words) (MCF-10A cells [6]; up to the concentration of 200 μM)
CC(=O)[O-].Cn1c(Cl)c(Cl)n(CC(O)c2ccccc2)[c]1=[Au+]=[c]1n(C)c(Cl)c(Cl)n1CC(O)c1ccccc1 (centres unmarked) [Compound 6, Bis [4,5-dichloro-(N-methyl, N’(2-hydroxy-2-phenyl-ethyl)imidazole-2-ylidine]gold(I)] acetate]	totally inhibited	No apoptosis was detected	inhibiting activity higher that CB but lesser than LA	0.78	localized within the cytoplasm and nucleus	16.8 ± 1.2 µM	32.5 ± 1.1 µM	not significant	24.4 ± 0.9 µM	–	–
Cn1ccn(CC([O-])c2ccccc2)[c]1=[Au+]=[c]1n(C)ccn1CC([O-])c1ccccc1.[Cl-].[Na+].[Na+] (centres unmarked) [Compound 1]	totally inhibited	No apoptosis was detected	inhibiting activity higher that CB but lesser than LA	0.079	localized within the cytoplasm and nucleus	15.8 ± 0.7 µM	> 200 µM	not significant	> 200 µM	17000 RFU	complete lack of cytotoxicity; also recorded: completely lack of cytotoxicity
